Results taken from US8937072B2, “Substituted cyanoaniline compounds, preparation and use thereof” (Sinochem Corporation, priority 2011, dated 2015).
Where two headings read alike, the source gives them in different places.

What was measured:
[1] = system: wheat powdery mildew; assay: Protectant activity in vivo (whole plant) against wheat powdery mildew; conditions: for pest or weed control at 400 µg/mL: Triticum aestivum, 168 h
Procedure: The method is as followed: The whole plant is used in this test. The compound is dissolved in a proper solvent to get mother solution. The proper solvent is selected from acetone, methanol, DMF and so on according to their dissolving capability to the sample. The volume rate of solvent and testing solution (v/v) is equal to or less than 5%. The mother solution is diluted with water containing 0.1% tween-80 to get the testing solution whose concentration is designed. The testing solution is sprayed to the host plant by a special plant sprayer. The plant is inoculated with fungus after 24 hours. According to the infecting characteristic of fungus, the plant is stored in a humidity chamber and then transferred into greenhouse after infection is finished. And the other plants are placed in greenhouse directly. The activity of compound is obtained by eyeballing after 7 days in common.

[2] = system: rice blast; assay: microbe, parasite or virus in culture; assay type: cell-based; conditions: for the inhibition rate against rice blast (%) 0.03 mg/L: Table 21, 0.03 mg/L; for the inhibition rate against rice blast (%) 0.1 mg/L: Table 21, 0.1 mg/L; for the inhibition rate against rice blast (%) 0.3 mg/L: Table 21, 0.3 mg/L; for inhibition at 0.03 µg/mL: read-out: the inhibition rate against rice blast (%) 0.03 mg/L; for inhibition at 0.1 µg/mL: read-out: the inhibition rate against rice blast (%) 0.1 mg/L
[3] = system: corn rust; assay: Protectant activity in vivo (whole plant) against corn rust; conditions: for pest or weed control at 6.25 µg/mL / pest or weed control at 25 µg/mL / pest or weed control at 100 µg/mL / pest or weed control at 400 µg/mL: Zea mays, 168 h
Outline: (§1)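 Compound stock in organic solvent (≤5% v/v) diluted in water with 0.1% Tween-80 and sprayed onto whole host plants. Fungal inoculation 24 h later; humidity chamber then greenhouse as the pathogen requires. Activity rated visually, usually after 7 days.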

[4] = system: cucumber gray mold; assay: Activity in vitro (96-well, High Through Put): inhibition rate against cucumber gray mold; assay type: cell-based; conditions: for inhibition at 25 µg/mL: dose 25 mg/L
Outline: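 Compound in acetone, methanol or DMF was combined with pathogen suspension under sterile conditions and held in a constant-temperature box. After 24 hours germination or growth was scored by eye against an untreated control to give the inhibition rate.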

[5] = system: cucumber downy mildew; assay: Protectant activity in vivo (whole plant) against cucumber downy mildew; conditions: for pest or weed control at 12.5 µg/mL / pest or weed control at 25 µg/mL / pest or weed control at 50 µg/mL / pest or weed control at 100 µg/mL / pest or weed control at 400 µg/mL: Cucumis sativus, 168 h; for pest or weed control at 12.5 µg/mL: 12.5 mg/L; for pest or weed control at 50 µg/mL: 50 mg/L; for pest or weed control at 100 µg/mL: 100 mg/L
Outline: as §1

[6] = Pyricularia oryzae, read-out: inhibition rate against rice blast
[7] = Pyricularia oryzae, read-out: the inhibition rate against rice blast (%) 0.3 mg/L
[8] = 25 mg/L, read-out: the protectant activity (%) against cucumber downy mildew
[9] = read-out: the protectant activity (%) against cucumber downy mildew
[10] = 400 mg/L, read-out: the protectant activity (%) against corn rust
[11] = dose 400 mg/L, read-out: protectant activity against corn rust in vivo
[12] = 0.9 mg/L, read-out: the inhibition rate against cucumber gray mold (%)
[13] = 2.8 mg/L, read-out: the inhibition rate against cucumber gray mold (%)
[14] = 8.3 mg/L, read-out: the inhibition rate against cucumber gray mold (%)

| SMILES | protectant activity against wheat powdery mildew in vivo ([1]; dose 400 mg/L) [%] | inhibition at 0.03 µg/mL ([2]; Pyricularia oryzae) [%] | inhibition at 0.1 µg/mL ([2]; Pyricularia oryzae) [%] | inhibition at 0.3 µg/mL [2, 7] [%] | pest or weed control at 400 µg/mL ([1]; dose 400 mg/L) [%] | pest or weed control at 12.5 µg/mL [5] [%] | pest or weed control at 25 µg/mL [5, 8] [%] | pest or weed control at 50 µg/mL [5, 9] [%] | pest or weed control at 100 µg/mL [5, 9] [%] | pest or weed control at 400 µg/mL ([5]; dose 400 mg/L) [%] | pest or weed control at 6.25 µg/mL ([3]; 6.25 mg/L) [%] | pest or weed control at 25 µg/mL ([3]; 25 mg/L) [%] | pest or weed control at 100 µg/mL ([3]; 100 mg/L) [%] | pest or weed control at 400 µg/mL [3, 10] [%] | pest or weed control at 400 µg/mL [3, 11] [%] | inhibition at 0.3 µg/mL ([4]; 0.3 mg/L) [%] | inhibition at 0.9 µg/mL [4, 12] [%] | inhibition at 2.8 µg/mL [4, 13] [%] | inhibition at 8.3 µg/mL [4, 14] [%] | inhibition at 25 µg/mL ([4]; in vitro) [%] | other results |
| --- | --- | --- | --- | --- | --- | --- | --- | --- | --- | --- | --- | --- | --- | --- | --- | --- | --- | --- | --- | --- | --- |
| N#Cc1cc([N+](=O)[O-])cc(Br)c1Nc1c(Cl)c(Cl)c(C#N)c(C#N)c1Cl [Compound A-42] | 98 | – | – | – | – | – | – | – | – | – | – | – | – | – | – | – | – | – | – | – | protectant activity against wheat powdery mildew in vivo ([1]; dose 100 mg/L): 80% |
| N#Cc1c(Cl)c(Cl)c(Nc2cc(Cl)c(C(F)(F)F)cc2Cl)c(C#N)c1Cl [Compound B-52] | 100 | – | – | – | – | – | – | – | – | – | – | – | – | – | – | – | – | – | – | – | the inhibition rate against rice blast (%) 0.03 mg/L [2]: 100%; the inhibition rate against rice blast (%) 0.1 mg/L [2]: 100%; the inhibition rate against rice blast (%) 0.3 mg/L [2]: 100%; the protectant activity (%) against corn rust ([3]; 6.25 mg/L): 70%; the protectant activity (%) against corn rust ([3]; 25 mg/L): 98%; the protectant activity (%) against corn rust ([3]; 100 mg/L): 100%; the protectant activity (%) against corn rust ([3]; 400 mg/L): 100%; protectant activity against corn rust in vivo ([3]; dose 100 mg/L): 100%; protectant activity against corn rust in vivo ([3]; dose 400 mg/L): 100%; the inhibition rate against cucumber gray mold (%) ([4]; 0.3 mg/L): 0%; the inhibition rate against cucumber gray mold (%) ([4]; 0.9 mg/L): 100%; the inhibition rate against cucumber gray mold (%) ([4]; 2.8 mg/L): 100%; the inhibition rate against cucumber gray mold (%) ([4]; 8.3 mg/L): 100% |
| N#Cc1c(Cl)c(Cl)c(Nc2nc(Cl)c(Cl)c(Cl)c2Cl)c(C#N)c1Cl [Compound B-128b] | 80 | – | – | – | – | – | – | – | – | – | – | – | – | – | – | – | – | – | – | – | the inhibition rate against rice blast (%) 0.03 mg/L [2]: 80%; the inhibition rate against rice blast (%) 0.1 mg/L [2]: 80%; the inhibition rate against rice blast (%) 0.3 mg/L [2]: 100%; protectant activity against cucumber downy mildew in vivo ([5]; dose 100 mg/L): 100%; protectant activity against cucumber downy mildew in vivo ([5]; dose 400 mg/L): 100%; protectant activity against corn rust in vivo ([3]; dose 400 mg/L): 100% |
| N#Cc1c(Cl)c(Cl)c(C#N)c(Nc2c(Cl)cc(C(F)(F)F)cc2Cl)c1Cl [Compound C-50] | 100 | – | – | – | – | – | – | – | – | – | – | – | – | – | – | – | – | – | – | – | the inhibition rate against rice blast (%) 0.03 mg/L [2]: 100%; the inhibition rate against rice blast (%) 0.1 mg/L [2]: 100%; the inhibition rate against rice blast (%) 0.3 mg/L [2]: 100%; protectant activity against corn rust in vivo ([3]; dose 400 mg/L): 100% |
| N#Cc1c(F)c(F)c(C#N)c(Nc2ccc(C(F)(F)F)cc2Cl)c1F [Compound C-82] | 100 | – | – | – | – | – | – | – | – | – | – | – | – | – | – | – | – | – | – | – | protectant activity against cucumber downy mildew in vivo ([5]; dose 400 mg/L): 100% |
| N#Cc1c(F)c(F)c(C#N)c(Nc2ccc(Cl)c(C(F)(F)F)c2)c1F [Compound C-91] | 100 | – | – | – | – | – | – | – | – | – | – | – | – | – | – | – | – | – | – | – | protectant activity against wheat powdery mildew in vivo ([1]; dose 6.25 mg/L): 70%; protectant activity against wheat powdery mildew in vivo ([1]; dose 100 mg/L): 95% |
| N#Cc1c(F)c(F)c(C#N)c(Nc2c(Cl)cc(C(F)(F)F)cc2Cl)c1F [Compound C-98] | 100 | – | – | – | – | – | – | – | – | – | – | – | – | – | – | – | – | – | – | – | protectant activity against wheat powdery mildew in vivo ([1]; dose 100 mg/L): 80%; protectant activity against corn rust in vivo ([3]; dose 400 mg/L): 100%; inhibition rate against cucumber gray mold ([4]; in vitro, dose 8.3 mg/L): 80% |
| N#Cc1c(Cl)c(Cl)c(Nc2ccc(Cl)cc2)c(C#N)c1Cl [KC2] | – | 0 | 0 | 0 | 0 | 0 | 0 | 0 | 0 | 0 | 0 | 0 | 0 | 0 | 0 | 0 | 0 | 0 | 0 | 0 | inhibition at 25 µg/mL [2, 6]: 0% |
| Cc1ccc(Nc2c(Cl)c(Cl)c(C#N)c(Cl)c2C#N)cc1 [KC3] | – | 0 | 0 | 0 | 0 | 0 | 0 | 0 | 0 | 0 | 0 | 0 | 0 | 0 | 0 | 0 | 0 | 0 | 0 | 0 | inhibition at 25 µg/mL [2, 6]: 0% |
| COc1ccc(Nc2c(Cl)c(Cl)c(C#N)c(Cl)c2C#N)cc1 [KC4] | – | 0 | 0 | 0 | 0 | – | – | – | – | – | 0 | 0 | 0 | 0 | 0 | 0 | 0 | 50 | 100 | – | inhibition at 0.9 µg/mL [2, 6]: 0%; pest or weed control at 25 µg/mL ([5]; dose 25 mg/L, read-out: protectant activity against cucumber downy mildew in vivo): 0%; inhibition at 0.9 µg/mL ([4]; in vitro, dose 0.9 mg/L, read-out: inhibition rate against cucumber gray mold): 0%; inhibition at 2.8 µg/mL ([4]; in vitro, dose 2.8 mg/L, read-out: inhibition rate against cucumber gray mold): 50% |
| Cc1cc(Nc2c(Cl)c(Cl)c(C#N)c(Cl)c2C#N)c(C)cc1Cl [KC6] | – | 0 | 0 | 0 | 0 | – | – | – | – | – | 0 | 0 | 0 | 0 | 0 | 0 | 0 | – | – | 0 | inhibition at 0.3 µg/mL [2, 6]: 0% |
| N#Cc1c(F)c(F)c(Nc2ccccc2)c(F)c1C#N [KC13] | – | – | – | – | 0 | 0 | 0 | 0 | 0 | 0 | 0 | 0 | 0 | 0 | 0 | 0 | 0 | 0 | 0 | 0 | – |
| COc1ccc(Nc2c(Cl)c(F)c(C#N)c(F)c2C#N)cc1 [KC20] | – | – | – | – | 0 | 0 | 0 | 0 | 0 | 0 | – | – | – | – | 0 | 0 | 0 | 0 | 0 | 50 | – |
| CN(C)c1ccc(Nc2c(Cl)c(F)c(C#N)c(F)c2C#N)cc1 [KC25] | – | 0 | 0 | 0 | – | 0 | 0 | 0 | 0 | 0 | 0 | 0 | 0 | 0 | 0 | 0 | 0 | 0 | 0 | 0 | inhibition at 25 µg/mL [2, 6]: 0% |
| N#Cc1c(Cl)c(Cl)c(Cl)c(C#N)c1Cl [chlorothalonil] | – | 0 | 30 | 100 | – | – | 30 | 80 | 100 | – | – | – | – | 50 | – | 80 | 100 | 100 | 100 | – | – |
